From patent US20220273590A1, “COMPOUNDS FOR PREVENTION AND TREATMENT OF POST-OPERATIVE COGNITIVE DYSFUNCTION” (ABREXA PHARMACEUTICALS, INC., priority 2019, published 2022)
Values joined by “and” are separate entries in the source; they are usually repeats but may differ in a detail not shown here. Identical values can stand only once. Like-named read-outs stand apart in the source and are kept apart here.

Experiments:
[1] = Brain levels of J147 after oral administration in Basis suspension; format: in vivo, Adult Wister Rats; settings: oral 20 mg/kg in Basis suspension, PO_B satellite
Method: (§1) Plasma samples obtained during surgery in J147-treated rats and 3 control rats were measured for circulating levels of J147. Results of pharmacokinetic measures of both plasma and brain levels of J147 in rats following oral administration of J147 in basis suspension at 20 mg/kg and also following intravascular administration at 5 mg/kg are shown in Table 2A-C below. When taking the absence of an appropriate peak as zero, mean concentration is 0 ng/ml in controls, 3.103 ng/ml in acutely treated rats and 0.233 ng/ml in chronically treated rats. J147 levels in food were verified as well (467 mg/kg). […] During the first 10 days after surgery and individual housing, rats on the diet ate on average 20±1 g, which was similar to the 20±1 g in surgery with control food and 23±1 g in non-surgery controls, verifying the anticipated intake of 10 mg J147/rat/day and further supporting no preference or aversion for the diet food.
(§2) Tables 2A-2B. Pharmacokinetic Measures of Plasma and Brain Levels of J147 Formulated in Basis Suspension Administered Orally to Adult Wister Rats at 20mg/kg.
• All of the brain samples were added with […] by brain weight (g) to PBS volume (mL) ratio 1:3 for homogenization. • The actual concentration (ng/g) is the detected value (ng/mL) multiplied by 4. • BLOQ: Below limit of quantitation (LLOQ: 2 ng/g) • NA: not available

[2] = Plasma levels of J147 after oral administration in Basis suspension; format: in vivo, Adult Wister Rats; settings: oral 20 mg/kg in Basis suspension
Method: as §1, §2

concentration at 0.5 h ([1]; Wistar, rat, brain homogenate, po, 20 mg/kg, 0.5 h, brain homogenate 1:3, Group 1, Group 2, LLOQ 2 ng/g, read-out: Brain Detected Conc.): 1.14 ng/mL
concentration at 1 h ([1]; Wistar, rat, brain homogenate, po, 20 mg/kg, 1 h, brain homogenate 1:3, Group 1, Group 2, LLOQ 2 ng/g, read-out: Brain Detected Conc.): 7.01 ng/mL
concentration at 8 h ([1]; Wistar, rat, brain homogenate, po, 20 mg/kg, 8 h, brain homogenate 1:3, Group 1, Group 2, LLOQ 2 ng/g, read-out: Brain Detected Conc.): 0.831 ng/mL
concentration at 0.25 h ([1]; Wistar, rat, brain, po, 20 mg/kg, 0.25 h, detected value multiplied by 4, Group 1, Group 2, read-out: Brain Actual Conc.): 2.94 ng/g
concentration at 0.5 h ([1]; Wistar, rat, brain, po, 20 mg/kg, 0.5 h, detected value multiplied by 4, Group 1, Group 2, read-out: Brain Actual Conc.): 4.56 ng/g
concentration at 0.5 h ([1]; Wistar, rat, brain, po, 20 mg/kg, 0.5 h, mean of Group 1 and 2, read-out: Brain Actual Conc. Mean): 3.94 ng/g
concentration at 1 h ([1]; Wistar, rat, brain, po, 20 mg/kg, 1 h, detected value multiplied by 4, Group 1, Group 2, read-out: Brain Actual Conc.): 28 ng/g
concentration at 1 h ([1]; Wistar, rat, brain, po, 20 mg/kg, 1 h, mean of Group 1 and 2, read-out: Brain Actual Conc. Mean): 23.7 ng/g
concentration at 2 h ([1]; Wistar, rat, brain, po, 20 mg/kg, 2 h, mean of Group 1 and 2, read-out: Brain Actual Conc. Mean): 28 ng/g
concentration at 4 h ([1]; Wistar, rat, brain, po, 20 mg/kg, 4 h, mean of Group 1 and 2, read-out: Brain Actual Conc. Mean): 20.6 ng/g
concentration at 8 h ([1]; Wistar, rat, brain, po, 20 mg/kg, 8 h, detected value multiplied by 4, Group 1, Group 2, read-out: Brain Actual Conc.): 3.32 ng/g
concentration at 8 h ([1]; Wistar, rat, brain, po, 20 mg/kg, 8 h, mean of Group 1 and 2, read-out: Brain Actual Conc. Mean): 3.26 ng/g
Brain Detected Conc. ([1]; 0.5 h, brain homogenate 1:3, Group 1, Group 2, LLOQ 2 ng/g, 20 mg/kg): 0.830 ng/mL
Brain Actual Conc. ([1]; 0.5 h, detected value multiplied by 4, Group 1, Group 2, 20 mg/kg): 3.32 ng/g
Brain Detected Conc. ([1]; 1 h, brain homogenate 1:3, Group 1, Group 2, LLOQ 2 ng/g, 20 mg/kg): 4.83 ng/mL
Brain Actual Conc. ([1]; 1 h, detected value multiplied by 4, Group 1, Group 2, 20 mg/kg): 19.3 ng/g
Brain Detected Conc. ([1]; 8 h, brain homogenate 1:3, Group 1, Group 2, LLOQ 2 ng/g, 20 mg/kg): 0.799 ng/mL
Brain Actual Conc. ([1]; 8 h, detected value multiplied by 4, Group 1, Group 2, 20 mg/kg): 3.20 ng/g
Brain Detected Conc. ([1]; 12 h, brain homogenate 1:3, Group 1, Group 2, LLOQ 2 ng/g): BLOQ
Brain Detected Conc. ([1]; 16 h, brain homogenate 1:3, Group 1, Group 2, LLOQ 2 ng/g): BLOQ
Brain Detected Conc. ([1]; 20 h, brain homogenate 1:3, Group 1, Group 2, LLOQ 2 ng/g): BLOQ
Brain Detected Conc. ([1]; 24 h, brain homogenate 1:3, Group 1, Group 2, LLOQ 2 ng/g): BLOQ
concentration at 0.25 h ([2]; Wistar, rat, plasma, po, 20 mg/kg, 0.25 h, individual rats (Rat 10, 11, 12), read-out: Plasma Conc.): 1.29 ng/mL
concentration at 0.25 h ([2]; Wistar, rat, plasma, po, 20 mg/kg, 0.25 h, mean of rats, read-out: Plasma Conc. Mean): 1.34 ng/mL
concentration at 0.5 h ([2]; Wistar, rat, plasma, po, 20 mg/kg, 0.5 h, mean of rats, read-out: Plasma Conc. Mean): 3.94 ng/mL
concentration at 1 h ([2]; Wistar, rat, plasma, po, 20 mg/kg, 1 h, individual rats (Rat 10, 11, 12), read-out: Plasma Conc.): 7.34 ng/mL
concentration at 1 h ([2]; Wistar, rat, plasma, po, 20 mg/kg, 1 h, mean of rats, read-out: Plasma Conc. Mean): 8.19 ng/mL
concentration at 2 h ([2]; Wistar, rat, plasma, po, 20 mg/kg, 2 h, individual rats (Rat 10, 11, 12), read-out: Plasma Conc.): 15.1 ng/mL
concentration at 2 h ([2]; Wistar, rat, plasma, po, 20 mg/kg, 2 h, mean of rats, read-out: Plasma Conc. Mean): 15.8 ng/mL
concentration at 4 h ([2]; Wistar, rat, plasma, po, 20 mg/kg, 4 h, mean of rats, read-out: Plasma Conc. Mean): 8.8 ng/mL
concentration at 6 h ([2]; Wistar, rat, plasma, po, 20 mg/kg, 6 h, individual rats (Rat 10, 11, 12), read-out: Plasma Conc.): 3.14 ng/mL
concentration at 6 h ([2]; Wistar, rat, plasma, po, 20 mg/kg, 6 h, mean of rats, read-out: Plasma Conc. Mean): 2.46 ng/mL
concentration at 8 h ([2]; Wistar, rat, plasma, po, 20 mg/kg, 8 h, individual rats (Rat 10, 11, 12), read-out: Plasma Conc.): 0.822 ng/mL
concentration at 8 h ([2]; Wistar, rat, plasma, po, 20 mg/kg, 8 h, mean of rats, read-out: Plasma Conc. Mean): 0.788 ng/mL
Plasma Conc. ([2]; 0.25 h, individual rats (Rat 10, 11, 12), 20 mg/kg): BLOQ and 1.38 ng/mL
Plasma Conc. ([2]; 0.5 h, individual rats (Rat 10, 11, 12), 20 mg/kg): 1.52 ng/mL and 5.77 ng/mL and 4.54 ng/mL
Plasma Conc. ([2]; 1 h, individual rats (Rat 10, 11, 12), 20 mg/kg): 8.39 ng/mL and 8.83 ng/mL
Plasma Conc. ([2]; 2 h, individual rats (Rat 10, 11, 12), 20 mg/kg): 16.9 ng/mL and 15.4 ng/mL
Plasma Conc. ([2]; 4 h, individual rats (Rat 10, 11, 12), 20 mg/kg): 6.92 ng/mL and 6.35 ng/mL and 13.2 ng/mL
Plasma Conc. ([2]; 6 h, individual rats (Rat 10, 11, 12), 20 mg/kg): 1.78 ng/mL and 2.47 ng/mL
Plasma Conc. ([2]; 8 h, individual rats (Rat 10, 11, 12), 20 mg/kg): 0.654 ng/mL and 0.888 ng/mL
Plasma Conc. ([2]; 12 h, individual rats (Rat 10, 11, 12)): BLOQ
Plasma Conc. ([2]; 16 h, individual rats (Rat 10, 11, 12)): BLOQ
Plasma Conc. ([2]; 20 h, individual rats (Rat 10, 11, 12)): BLOQ
Plasma Conc. ([2]; 24 h, individual rats (Rat 10, 11, 12)): BLOQ
SMILES: COc1cccc(/C=N/N(C(=O)C(F)(F)F)c2ccc(C)cc2C)c1 [J147]
